What was measured:
[1] = target: Mitogen-activated protein kinase 14 (Homo sapiens, UniProt Q16539); parameters: species or system Escherichia coli;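 further: inhibition of p38alpha enzyme activity in a biochemical kinase assay, with myelin basic protein serving as substrate; in other assays of this panel Not Active means under 50% inhibition at 10 µM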
Calcitonin receptor = target: T1, Calcitonin receptor (Homo sapiens, UniProt P30988); type: cell membranes, Membrane; conditions: t47d; further: in other assays of this panel Not Active means under 50% inhibition at 10 µM
T1 sequence (P30988 whole entry): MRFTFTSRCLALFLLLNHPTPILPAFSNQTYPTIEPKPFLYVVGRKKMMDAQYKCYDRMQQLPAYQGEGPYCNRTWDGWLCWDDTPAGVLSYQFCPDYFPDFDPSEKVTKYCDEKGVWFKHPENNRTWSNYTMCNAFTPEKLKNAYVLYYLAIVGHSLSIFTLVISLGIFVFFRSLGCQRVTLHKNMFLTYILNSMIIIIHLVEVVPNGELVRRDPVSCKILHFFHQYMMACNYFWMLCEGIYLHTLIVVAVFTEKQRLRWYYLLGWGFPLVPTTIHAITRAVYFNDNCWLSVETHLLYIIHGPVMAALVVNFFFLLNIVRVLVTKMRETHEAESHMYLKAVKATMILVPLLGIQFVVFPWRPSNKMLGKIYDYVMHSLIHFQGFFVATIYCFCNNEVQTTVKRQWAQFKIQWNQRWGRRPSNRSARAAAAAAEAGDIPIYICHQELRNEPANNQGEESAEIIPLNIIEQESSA

Leukotriene C4 synthase = target: T2, Leukotriene C4 synthase (Cavia porcellus, UniProt A6XA80); type: tissue-based, Lung;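 further: enzyme inhibition assay of leukotriene C4 synthase, using LTA4 as the substrate; in other assays of this panel Not Active means under 50% inhibition at 10 µM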
T2 sequence (A6XA80 whole entry): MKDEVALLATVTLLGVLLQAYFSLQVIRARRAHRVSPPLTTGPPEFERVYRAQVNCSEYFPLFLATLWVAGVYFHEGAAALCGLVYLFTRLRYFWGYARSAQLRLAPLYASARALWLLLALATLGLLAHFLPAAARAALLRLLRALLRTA

Endothelin-1 receptor = target: T3, Endothelin-1 receptor (Homo sapiens, UniProt P25101); type: cell membranes, Membrane; conditions: cho-k1; further: in other assays of this panel Not Active means under 50% inhibition at 10 µM
T3 sequence (P25101 whole entry): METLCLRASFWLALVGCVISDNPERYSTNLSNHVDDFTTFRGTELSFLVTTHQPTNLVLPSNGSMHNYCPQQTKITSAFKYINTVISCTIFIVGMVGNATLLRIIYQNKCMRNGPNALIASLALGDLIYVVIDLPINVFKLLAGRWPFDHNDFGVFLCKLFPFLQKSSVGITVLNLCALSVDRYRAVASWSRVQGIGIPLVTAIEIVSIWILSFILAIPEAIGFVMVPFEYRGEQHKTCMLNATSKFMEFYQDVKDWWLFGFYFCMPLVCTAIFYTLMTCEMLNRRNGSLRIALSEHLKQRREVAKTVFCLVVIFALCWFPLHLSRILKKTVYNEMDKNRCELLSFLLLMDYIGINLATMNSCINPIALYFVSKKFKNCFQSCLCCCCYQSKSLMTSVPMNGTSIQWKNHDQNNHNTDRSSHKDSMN

[2] = target: T4, C-X-C chemokine receptor type 1 (Homo sapiens, UniProt P25024); further: in other assays of this panel Not Active means under 50% inhibition at 10 µM
T4 sequence (P25024 whole entry): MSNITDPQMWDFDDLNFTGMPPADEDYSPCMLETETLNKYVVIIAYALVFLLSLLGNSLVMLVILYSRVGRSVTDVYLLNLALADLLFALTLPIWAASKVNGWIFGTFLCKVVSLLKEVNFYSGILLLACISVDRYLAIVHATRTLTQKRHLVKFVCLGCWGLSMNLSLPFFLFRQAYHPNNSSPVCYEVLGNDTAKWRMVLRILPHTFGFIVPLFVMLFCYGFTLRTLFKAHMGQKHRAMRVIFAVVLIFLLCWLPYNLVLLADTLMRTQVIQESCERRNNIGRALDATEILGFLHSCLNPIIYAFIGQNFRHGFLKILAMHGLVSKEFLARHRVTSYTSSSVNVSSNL

[3] = target: Mitogen-activated protein kinase 3 (Homo sapiens, UniProt P27361); assay: DRUGMATRIX: Protein Serine/Threonine Kinase, ERK1 enzyme inhibition (substrate: Myelin Basic Protein); parameters: species or system Escherichia coli; conditions: Not Active = under 50% inhibition at 10 µM
[4] = target: T5, Receptor-type tyrosine-protein phosphatase C (Homo sapiens, UniProt P08575); parameters: species or system Escherichia coli
T5 sequence (P08575 whole entry): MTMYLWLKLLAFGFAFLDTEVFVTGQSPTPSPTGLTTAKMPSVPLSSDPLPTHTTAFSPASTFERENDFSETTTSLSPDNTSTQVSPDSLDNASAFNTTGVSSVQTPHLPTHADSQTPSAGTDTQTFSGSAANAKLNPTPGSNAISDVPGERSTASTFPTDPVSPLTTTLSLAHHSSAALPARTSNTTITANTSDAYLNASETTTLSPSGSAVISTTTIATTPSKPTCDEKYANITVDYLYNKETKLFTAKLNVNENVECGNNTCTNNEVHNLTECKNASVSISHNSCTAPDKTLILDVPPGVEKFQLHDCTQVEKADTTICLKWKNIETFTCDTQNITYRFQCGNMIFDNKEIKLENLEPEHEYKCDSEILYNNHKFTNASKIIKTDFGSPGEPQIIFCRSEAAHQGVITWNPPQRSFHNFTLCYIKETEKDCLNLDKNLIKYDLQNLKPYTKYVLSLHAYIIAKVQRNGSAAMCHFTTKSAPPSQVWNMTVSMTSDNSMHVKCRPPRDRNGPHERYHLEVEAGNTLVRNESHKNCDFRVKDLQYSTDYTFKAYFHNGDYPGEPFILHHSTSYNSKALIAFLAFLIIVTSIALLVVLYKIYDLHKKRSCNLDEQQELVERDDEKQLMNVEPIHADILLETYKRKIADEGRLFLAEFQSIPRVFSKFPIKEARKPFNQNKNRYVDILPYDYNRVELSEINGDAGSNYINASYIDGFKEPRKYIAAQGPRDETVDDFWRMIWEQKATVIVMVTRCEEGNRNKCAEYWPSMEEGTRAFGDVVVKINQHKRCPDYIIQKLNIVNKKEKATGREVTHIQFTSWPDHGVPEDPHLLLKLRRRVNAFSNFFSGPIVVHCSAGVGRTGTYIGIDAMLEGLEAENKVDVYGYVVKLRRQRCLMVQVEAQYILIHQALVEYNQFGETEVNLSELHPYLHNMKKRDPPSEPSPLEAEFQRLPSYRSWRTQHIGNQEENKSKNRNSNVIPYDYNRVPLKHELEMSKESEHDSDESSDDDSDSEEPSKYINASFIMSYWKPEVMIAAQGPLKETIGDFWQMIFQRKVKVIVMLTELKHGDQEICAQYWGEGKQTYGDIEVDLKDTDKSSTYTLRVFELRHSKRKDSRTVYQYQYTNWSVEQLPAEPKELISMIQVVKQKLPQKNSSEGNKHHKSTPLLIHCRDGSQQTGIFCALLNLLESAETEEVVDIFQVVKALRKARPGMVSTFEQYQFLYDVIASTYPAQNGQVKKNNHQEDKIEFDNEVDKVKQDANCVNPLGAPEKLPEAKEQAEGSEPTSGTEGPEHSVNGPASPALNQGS

Mitogen-activated protein kinase 3, sequence (P27361 whole entry): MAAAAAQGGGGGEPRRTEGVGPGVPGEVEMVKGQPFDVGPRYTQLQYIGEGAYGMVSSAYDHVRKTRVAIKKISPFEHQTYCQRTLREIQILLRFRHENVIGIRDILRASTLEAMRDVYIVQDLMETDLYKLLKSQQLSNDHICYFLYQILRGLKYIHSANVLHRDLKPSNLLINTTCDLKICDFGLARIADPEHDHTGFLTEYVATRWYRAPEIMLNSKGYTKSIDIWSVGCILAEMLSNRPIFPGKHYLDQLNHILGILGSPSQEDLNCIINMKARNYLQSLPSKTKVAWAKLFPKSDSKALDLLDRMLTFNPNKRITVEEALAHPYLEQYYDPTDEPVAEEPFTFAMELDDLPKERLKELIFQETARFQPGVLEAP
Mitogen-activated protein kinase 14, sequence (Q16539 whole entry): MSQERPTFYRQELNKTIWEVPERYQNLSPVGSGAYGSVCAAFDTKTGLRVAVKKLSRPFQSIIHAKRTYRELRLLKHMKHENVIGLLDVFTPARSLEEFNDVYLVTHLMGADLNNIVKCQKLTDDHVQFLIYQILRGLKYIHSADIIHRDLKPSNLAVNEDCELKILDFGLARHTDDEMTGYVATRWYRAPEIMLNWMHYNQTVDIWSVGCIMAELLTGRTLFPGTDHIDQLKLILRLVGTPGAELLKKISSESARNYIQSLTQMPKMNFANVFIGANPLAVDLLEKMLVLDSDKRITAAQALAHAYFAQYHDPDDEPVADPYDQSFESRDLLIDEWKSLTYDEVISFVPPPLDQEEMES

O=c1[nH]c(=O)n(C2CCCO2)cc1F (stereo not drawn) [TEGAFUR]
Not Active: IC50 [1] | IC50 (Calcitonin receptor) | IC50 (Leukotriene C4 synthase) | IC50 (Endothelin-1 receptor) | IC50 [2] | IC50 [3] | IC50 [4]

CC(=N)S [THIOACETAMIDE]
Not Active: IC50 [1] | IC50 (Calcitonin receptor) | IC50 (Leukotriene C4 synthase) | IC50 (Endothelin-1 receptor) | IC50 [2] | IC50 [3] | IC50 [4]

Cc1ccc(C(=O)c2ccc(CC(=O)O)n2C)cc1 [TOLMETIN]
Not Active: IC50 [1] | IC50 (Calcitonin receptor) | IC50 (Leukotriene C4 synthase) | IC50 (Endothelin-1 receptor) | IC50 [2] | IC50 [3] | IC50 [4]

CC(=O)OCC(COC(C)=O)OC(C)=O [TRIACETIN]
Not Active: IC50 [1] | IC50 (Calcitonin receptor) | IC50 (Leukotriene C4 synthase) | IC50 (Endothelin-1 receptor) | IC50 [2] | IC50 [3] | IC50 [4]

CN1CCN(CCCN2c3ccccc3Sc3ccc(C(F)(F)F)cc32)CC1 [TRIFLUOPERAZINE]
Not Active: IC50 [1] | IC50 (Calcitonin receptor) | IC50 (Leukotriene C4 synthase) | IC50 (Endothelin-1 receptor) | IC50 [2] | IC50 [3] | IC50 [4]

TRANSPLATIN
Not Active: IC50 [1] | Ki [1] | IC50 (Calcitonin receptor) | Ki (Calcitonin receptor) | IC50 (Leukotriene C4 synthase) | Ki (Leukotriene C4 synthase) | IC50 (Endothelin-1 receptor) | Ki (Endothelin-1 receptor) | IC50 [2] | Ki [2] | IC50 [3] | Ki [3] | IC50 [4] | Ki [4]

ZIRCONIUM(IV) CHLORIDE
Not Active: IC50 [1] | Ki [1] | IC50 (Calcitonin receptor) | Ki (Calcitonin receptor) | IC50 (Leukotriene C4 synthase) | Ki (Leukotriene C4 synthase) | IC50 (Endothelin-1 receptor) | Ki (Endothelin-1 receptor) | IC50 [2] | Ki [2] | IC50 [3] | Ki [3] | IC50 [4] | Ki [4]

Reference: ChEMBL document CHEMBL1909046, “DrugMatrix in vitro pharmacology data”
